Test results: patent EP2450046B1, “A MEDICINAL COMPOSITION FOR THE TREATMENT OF BRONCHITIS AND PREPARATION THEREOF” (Hebei Yiling Medicine Research Institute Co., Ltd., priority 2009, dated 2011)
Structures can show the parent of a compound that is named as a salt.

Tests used:
[1] = test system: aqueous ammonia-induced cough in mice; assay: Cough-checking effect on the aqueous ammonia-induced cough in mice; type: in vivo, Kunming mice; conditions: CHT 12mg/kg i.g. q.d. 3 days; n=10
Description: • (1) The present medication to be tested, 6.25g crude drugs/g (i.e.,1g of the medication was made from 6.25g crude drugs), provided by Shijiazhuang Yiling Pharmaceutical Co. Ltd., lot number: 060501, and diluted to required concentrations with distilled water in the experiment. • (2) Cloperastine Hydrochloride Tablet (CHT) as the positive control of a western medicine, 10mg/tablet, produced by Beijing Shuguang Pharmaceutical Co., Ltd. lot number: 060619, and valid until June, 2008. • (3) Gui Long Ke Chuan Ning Capsule (GLKCNC) as the positive control of a traditional Chinese medicine, 1g crude drugs/pill (0.3g of powder per pill), produced by Shanxi Guilong pharmaceutical Co., Ltd., Approval number: SFDA Approval No. Z-11; Lot number of the product: 060112; valid until December 2007.
Sixty Kunming mice of Grade II evenly composed of males and females with the mean body weight of 19.90 ± 0.66 g, provided by Institute of Laboratory Animal Science, Chinese Academy of Medical Sciences, License number: SCXK (Jing) 2000-0006. […]

[2] = test system: citric acid-induced cough; assay: Cough-checking effect on citric acid-induced cough in guinea pigs; type: in vivo; conditions: CHT 7mg/kg i.g. q.d. 3 days; n=10
Description: • (1) The present medication to be tested, 6.25g crude drugs/g, provided by Shijiazhuang Yiling Pharmaceutical Co. Ltd., lot number: 060501. • (2) GLKCNC as the traditional Chinese medicine control, 1g crude drugs/pill (0.3g of powder per pill), produced by Shanxi Guilong pharmaceutical Co., Ltd., Approval number: SFDA Approval No. Z-11; Lot number of the product: 060112; valid until December 2007. • (3) CHT as the Western medicine control, 10 mg/tablet, produced by Beijing Shuguang Pharmaceutical Co., Ltd., production date: 200606; lot number: 060619; valid until June, 2008.
Sixty purebred guinea pigs of Grade I evenly composed of males and females with the mean body weight of 206.65 ± 6.92g, provided by Beijing Keyu Animal Breeding Center, License number: SCXK (Jing) 2002-0005.
The guinea pigs were individually placed into the sealed 4L bell-shape container with prior to the experiment and a solution of 17.5% citric acid was sprayed for 1 minute at a pressure of 400 mmHg through the glass sparger. The guinea pigs were screened according to the cough number recorded within 5 minutes Guinea pigs with a cough number of less than 10 were rejected and the qualified ones were chosen for the experiment. […]

[3] = test system: panting in the guinea pig induced by histamine plus acetylcholine; assay: Dyspnea-relieving effect on panting in the guinea pig induced by histamine plus acetylcholine; type: in vivo, guinea pigs; conditions: Aminophylline 0.05 g/kg i.g. q.d. 3 days, n=10
Description: Sixty white purebred guinea pigs of Grade I evenly composed of males and females with the mean body weight of 198.55 ± 6.30g, provided by Beijing Keyu Animal Breeding Center, License number: SCXK (Jing) 2002-0005.
The healthy guinea pigs evenly composed of males and females were screened preciously. The guinea pigs were individually placed into the 4 L bell-shape glass container and sprayed with a mixed liquid of 2 % acetylcholine chloride and 0.1 % histamine phosphate in equal volumes at a pressure of 400 mmHg for 20s. […] The guinea pig showing the incubation period for asthmatic convulsion above 120s would not be chosen. […] The animals in the test groups were intragastrically administered q.d. at a volume of 5 ml/kg for consecutive three days, while the animals in the control group were administered with equal amount of physiological saline. An asthma-inducing experiment was performed in 30 min post the final administration. The guinea pigs were individually placed into the 4 L bell-shape glass container and sprayed with a mixed liquid of 2 % acetylcholine chloride plus 0.1 % histamine phosphate in equal volumes at a pressure of 400 mmHg for 20s. […] The incubation period lasting for more than 6 min was counted as 360 s. The experimental results were compared among the groups by t-test.

[4] = test system: sputum volume in mice; assay: Effect on sputum volume in mice measured by phenol red; type: in vivo, ICR mice; conditions: Mucosolvan 16mg/kg i.g. q.d. 3 days; n=10
Description: • (1) The present medication to be tested, 6.25 g crude drugs/g, provided by Shijiazhuang Yiling Pharmaceutical Co. Ltd., lot number: 060501. • (2) GLKCNC as the traditional Chinese medicine control, 1g crude drugs/pill (0.3g of powder per pill), produced by Shanxi Guilong pharmaceutical Co., Ltd., Approval number: SFDA Approval No. Z-11; Lot number of the product: 060112; valid until December 2007. • (3) Mucosolvan as a western medicine control, 30mg/tablet, the product of Boehringer Ingelheim Int. Ltd. German, lot number: 206362, distribution lot number:030307. […]
Sixty healthy mice were randomly assigned into the following six groups: (1) the blank control group administered with distilled water (25 ml/kg); (2) the Mucosolvan group (16 mg/kg); (3) the GLKCNC group (2 g crude drugs/kg); (4) the low dosage group of the present medication (L-dosage group, 3 g crude drugs/kg); (5) the medium dosage group of the present medication (M-dosage group, 6 g crude drugs/kg); (6)the high dosage group of the present medication (H-dosage group, 12 g crude drugs/kg). […] The optical density (OD) value of the flush liquid was measured by a UV-visible spectrophotometer UV-120-02 at a wavelength of 546nm, in which the level of phenol red in the flush liquid (µg/ml) was calculated on the basis of phenol red standard curve. […]

[5] = test system: sputum volume in rats; assay: Effect on sputum volume in rats measured by capillary; type: in vivo
Description: • (1) The present medication to be tested, 6.25 g of crude drug/g, provided by Shijiazhuang Yiling Pharmaceutical Co. Ltd., lot number: 060501. • (2) GLKCNC as the traditional Chinese medicine control, 1g crude drugs/pill (0.3g of powder per pill), produced by Shanxi Guilong pharmaceutical Co., Ltd., Approval number: SFDA Approval No. Z-11; Lot number of the product: 060112; valid until December 2007. • (3) Mucosolvan as a western medicine control, 30mg/tablet, the product of Boehringer Ingelheim Int. Ltd. German, lot number: 206362, distribution lot number:030307.
Sixty SPF Wistar […] evenly composed of males and females with the mean body weight of 174.38 ± 7.64 g, provided by Institute of Laboratory Animal Science, Chinese Acadamy of Medical Sciences, and License number: SCXK (Jing) 2000-0006.
The sixty healthy rats were randomly assigned into the following six groups: (1) the blank control group administered with distilled water (10 ml/kg); (2) the Mucosolvan group (11 mg /kg); (3) the GLKCNC group (1.5 g crude drug/kg); (4) the low dosage group of the present medication (L-dosage group, 2 g crude drug/kg); (5) the medium dosage group of the present medication (M-dosage group, 4 g crude drug/kg); (6)the high dosage group of the present medication (H-dosage group, 8 g crude drug/kg). […] The skin of neck was incised and the trachea was separated, on which an orifice was pricked with a syringe needle at the median site of the lower edge of the thyroid cartilage between the two cartilages. A piece of glass capillary with the length of 5 cm and the inner diameter of 0.8 mm was inserted through the orifice in a way such that the glass capillary was just contact the inner wall of the trachea. When the glass capillary was filled up with sputum, it would be replaced immediately with another one. The sputum volume in capillaries was determined in 1 hour prior to the administration. One hour later, the animals in the experimental group were administered duodenally with the medications at a volume of 10 ml/kg, while the animals in the control group were administered with equal amount of physiological saline. […] Comparisons among the groups were performed by t-test with the average amount of the secretion in 1 hour prior to administration serving as a normal value.

[6] = Mucosolvan 11mg/kg duodenal, n=10
[7] = Mucosolvan 11mg/kg duodenal, vs 1 h prior to administration

SMILES: Clc1ccc(C(OCCN2CCCCC2)c2ccccc2)cc1 (centres unmarked) [CHT, Cloperastine Hydrochloride]
- Cough number [1]: 28.40±9.75 times /3 min
- Incubation period [1]: 118.30 ± 27.23 s
- Cough number [2]: 6.10±3.57 times/5min
- Incubation period [2]: 196.80 ± 66.22 s

SMILES: Cn1c(=O)c2[nH]cnc2n(C)c1=O [Aminophylline]
- Falling-down time [3]: 358.5 ± 3.4 s
- Incubation period ([3]; more than 6 min counted as 360 s): 228.0 ± 43.3 s

SMILES: Cl.Nc1c(Br)cc(Br)cc1CNC1CCC(O)CC1 (centres unmarked) [Mucosolvan]
- Amount of excreted phenol red [4]: 1.538 ± 0.486 µg/mL
- Excretion value, 1 h post administration [5, 6]: 8.76±2.51 cm
- Excretion value, 2 h post administration [5, 6]: 8.50±1.79 cm
- Excretion value, Change rate, 1 h post administration [5, 7]: 238.05±77.76%
- Excretion value, Change rate, 2 h post administration [5, 7]: 67.48±11.94%
- Excretion value, Difference, 1 h post administration [5, 7]: 6.01±1.56 cm
- Excretion value, Difference, 2 h post administration [5, 7]: 5.75±1.64 cm
- Excretion value, 1 h prior to administration ([5]; Mucosolvan group 11mg/kg, baseline before dosing, n=10): 2.75±1.08 cm
